Key:
Type in all cases: functional
SN12C = test: Growth inhibition of human SN12C cells assessed as cell growth at 10 uM incubated for 48 hrs by sulforhodamine B assay relative to control; conditions: read-out: Activity
HT-29 = test: Growth inhibition of human HT-29 cells assessed as cell growth at 10 uM incubated for 48 hrs by sulforhodamine B assay relative to control; conditions: HT-29, 48 h, read-out: Activity
HCC 2998 = test: Growth inhibition of human HCC2998 cells assessed as cell growth at 10 uM incubated for 48 hrs by sulforhodamine B assay relative to control; conditions: HCC 2998, 48 h, read-out: Activity
NCI/ADR-RES = test: Growth inhibition of human NCI/ADR-RES cells assessed as cell growth at 10 uM incubated for 48 hrs by sulforhodamine B assay relative to control; conditions: read-out: Activity
HOP-92 = test: Growth inhibition of human HOP92 cells assessed as cell growth at 10 uM incubated for 48 hrs by sulforhodamine B assay relative to control; conditions: HOP-92, 48 h, read-out: Activity
SNB-19 = test: Growth inhibition of human SNB19 cells assessed as cell growth at 10 uM incubated for 48 hrs by sulforhodamine B assay relative to control; conditions: SNB-19, 48 h, read-out: Activity
UACC-62 = test: Growth inhibition of human UACC62 cells assessed as cell growth at 10 uM incubated for 48 hrs by sulforhodamine B assay relative to control; conditions: UACC-62, 48 h, read-out: Activity
NCI-H226 = test: Growth inhibition of human NCI-H226 cells assessed as cell growth at 10 uM incubated for 48 hrs by sulforhodamine B assay relative to control; conditions: NCI-H226, 48 h, read-out: Activity
SF-539 = test: Growth inhibition of human SF539 cells assessed as cell growth at 10 uM incubated for 48 hrs by sulforhodamine B assay relative to control; conditions: SF-539, 48 h, read-out: Activity
SNB-75 = test: Growth inhibition of human SNB75 cells assessed as cell growth at 10 uM incubated for 48 hrs by sulforhodamine B assay relative to control; conditions: SNB-75, 48 h, read-out: Activity
SK-MEL-2 = test: Growth inhibition of human SK-MEL-2 cells assessed as cell growth at 10 uM incubated for 48 hrs by sulforhodamine B assay relative to control; conditions: SK-MEL-2, 48 h, read-out: Activity
Hs-578T = test: Growth inhibition of human Hs 578T cells assessed as cell growth at 10 uM incubated for 48 hrs by sulforhodamine B assay relative to control; conditions: read-out: Activity
NCI-H522 = test: Growth inhibition of human NCI-H522 cells assessed as cell growth at 10 uM incubated for 48 hrs by sulforhodamine B assay relative to control; conditions: NCI-H522, 48 h, read-out: Activity
SF-268 = test: Growth inhibition of human SF268 cells assessed as cell growth at 10 uM incubated for 48 hrs by sulforhodamine B assay relative to control; conditions: SF-268, 48 h, read-out: Activity
LOX IMVI = test: Growth inhibition of human LOXIMVI cells assessed as cell growth at 10 uM incubated for 48 hrs by sulforhodamine B assay relative to control; conditions: read-out: Activity
OVCAR-8 = test: Growth inhibition of human OVCAR8 cells assessed as cell growth at 10 uM incubated for 48 hrs by sulforhodamine B assay relative to control; conditions: OVCAR-8, 48 h, read-out: Activity
U-251 = test: Growth inhibition of human U251 cells assessed as cell growth at 10 uM incubated for 48 hrs by sulforhodamine B assay relative to control; conditions: U-251, 48 h, read-out: Activity
BT-549 = test: Growth inhibition of human BT549 cells assessed as cell growth at 10 uM incubated for 48 hrs by sulforhodamine B assay relative to control; conditions: BT-549, 48 h, read-out: Activity
SK-MEL-28 = test: Growth inhibition of human SK-MEL-28 cells assessed as cell growth at 10 uM incubated for 48 hrs by sulforhodamine B assay relative to control; conditions: SK-MEL-28, 48 h, read-out: Activity
OVCAR-4 = test: Growth inhibition of human OVCAR4 cells assessed as cell growth at 10 uM incubated for 48 hrs by sulforhodamine B assay relative to control; conditions: OVCAR-4, 48 h, read-out: Activity
CCRF-CEM = test: Growth inhibition of human CCRF-CEM cells assessed as cell growth at 10 uM incubated for 48 hrs by sulforhodamine B assay relative to control; conditions: read-out: Activity
Malme-3M = test: Growth inhibition of human MALME-3M cells assessed as cell growth at 10 uM incubated for 48 hrs by sulforhodamine B assay relative to control; conditions: read-out: Activity
RXF 393 = test: Growth inhibition of human RXF393 cells assessed as cell growth at 10 uM incubated for 48 hrs by sulforhodamine B assay relative to control; conditions: RXF 393, 48 h, read-out: Activity
UO-31 = test: Growth inhibition of human UO31 cells assessed as cell growth at 10 uM incubated for 48 hrs by sulforhodamine B assay relative to control; conditions: UO-31, 48 h, read-out: Activity
A549 = test: Growth inhibition of human A549/ATCC cells assessed as cell growth at 10 uM incubated for 48 hrs by sulforhodamine B assay relative to control; conditions: A549, 48 h, read-out: Activity
MDA-MB-231 = test: Growth inhibition of human MDA-MB-231 cells assessed as cell growth at 10 uM incubated for 48 hrs by sulforhodamine B assay relative to control; conditions: MDA-MB-231, 48 h, read-out: Activity
TK-10 = test: Growth inhibition of human TK10 cells assessed as cell growth at 10 uM incubated for 48 hrs by sulforhodamine B assay relative to control; conditions: TK-10, 48 h, read-out: Activity
HOP-62 = test: Growth inhibition of human HOP62 cells assessed as cell growth at 10 uM incubated for 48 hrs by sulforhodamine B assay relative to control; conditions: HOP-62, 48 h, read-out: Activity
CAKI-1 = test: Growth inhibition of human Caki1 cells assessed as cell growth at 10 uM incubated for 48 hrs by sulforhodamine B assay relative to control; conditions: CAKI-1, 48 h, read-out: Activity
OVCAR-3 = test: Growth inhibition of human OVCAR3 cells assessed as cell growth at 10 uM incubated for 48 hrs by sulforhodamine B assay relative to control; conditions: OVCAR-3, 48 h, read-out: Activity
COLO 205 = test: Growth inhibition of human COLO205 cells assessed as cell growth at 10 uM incubated for 48 hrs by sulforhodamine B assay relative to control; conditions: COLO 205, 48 h, read-out: Activity
A498 = test: Growth inhibition of human A498 cells assessed as cell growth at 10 uM incubated for 48 hrs by sulforhodamine B assay relative to control; conditions: A498, 48 h, read-out: Activity
KM12 = test: Growth inhibition of human KM12 cells assessed as cell growth at 10 uM incubated for 48 hrs by sulforhodamine B assay relative to control; conditions: KM12, 48 h, read-out: Activity

Compound | growth at 10 µM (SN12C) [%] | growth at 10 µM (HT-29) [%] | growth at 10 µM (HCC 2998) [%] | growth at 10 µM (NCI/ADR-RES) [%] | growth at 10 µM (HOP-92) [%] | growth at 10 µM (SNB-19) [%] | growth at 10 µM (UACC-62) [%] | growth at 10 µM (NCI-H226) [%] | growth at 10 µM (SF-539) [%] | growth at 10 µM (SNB-75) [%] | growth at 10 µM (SK-MEL-2) [%] | growth at 10 µM (Hs-578T) [%] | growth at 10 µM (NCI-H522) [%] | growth at 10 µM (SF-268) [%] | growth at 10 µM (LOX IMVI) [%] | growth at 10 µM (OVCAR-8) [%] | growth at 10 µM (U-251) [%] | growth at 10 µM (BT-549) [%] | growth at 10 µM (SK-MEL-28) [%] | growth at 10 µM (OVCAR-4) [%] | further results
O=C1CC(c2cc3ccc4ccccc4c3[nH]c2=O)Nc2ccccc21 (configuration not stated) | 90.7 | 99.1 | 108 | 108 | 104 | 92.5 | 101 | 92.5 | 82.2 | 102 | 96.2 | 77.3 | 89.2 | 96.8 | 84 | 110 | 87.6 | 69.4 | 106 | 87.8 | growth at 10 µM (CCRF-CEM): 101%; growth at 10 µM (Malme-3M): 84.7%; growth at 10 µM (RXF 393): 110%; growth at 10 µM (UO-31): 95.4%; growth at 10 µM (A549): 92.4%; growth at 10 µM (MDA-MB-231): 69.3%; growth at 10 µM (TK-10): 116%; growth at 10 µM (HOP-62): 91.1%; growth at 10 µM (CAKI-1): 86%; growth at 10 µM (OVCAR-3): 115%; growth at 10 µM (COLO 205): 86.7%; growth at 10 µM (A498): 115%; growth at 10 µM (KM12): 94.5%
Cc1ccc2[nH]c(=O)c(C3CNC(=O)c4ccccc4N3)cc2c1 (configuration not stated) | 99.7 | 104 | 107 | 108 | 110 | 99.3 | 98.4 | 109 | 96.5 | 97.4 | 110 | 105 | 93.6 | 99.5 | 96.8 | 113 | 99.5 | 99.4 | 108 | 108 | growth at 10 µM (CCRF-CEM): 97.4%; growth at 10 µM (Malme-3M): 109%; growth at 10 µM (RXF 393): 109%; growth at 10 µM (UO-31): 84.3%; growth at 10 µM (A549): 95.7%; growth at 10 µM (MDA-MB-231): 114%; growth at 10 µM (TK-10): 104%; growth at 10 µM (HOP-62): 97.1%; growth at 10 µM (CAKI-1): 92.1%; growth at 10 µM (OVCAR-3): 107%; growth at 10 µM (COLO 205): 107%; growth at 10 µM (A498): 93%; growth at 10 µM (KM12): 102%
O=C1CC(c2cc3ccccc3[nH]c2=O)Nc2ccccc21 (configuration not stated) | 93.3 | 99.5 | 103 | 108 | 108 | 99.4 | 96.3 | 96.5 | 99.4 | 90.4 | 98.3 | 99.7 | 90.7 | 101 | 98.2 | 108 | 99.7 | 94.3 | 110 | 109 | growth at 10 µM (CCRF-CEM): 106%; growth at 10 µM (Malme-3M): 106%; growth at 10 µM (RXF 393): 99.7%; growth at 10 µM (UO-31): 95.2%; growth at 10 µM (A549): 95.5%; growth at 10 µM (MDA-MB-231): 83.9%; growth at 10 µM (TK-10): 98%; growth at 10 µM (HOP-62): 100%; growth at 10 µM (CAKI-1): 95.2%; growth at 10 µM (OVCAR-3): 113%; growth at 10 µM (COLO 205): 115%; growth at 10 µM (A498): 79.4%; growth at 10 µM (KM12): 105%
O=C1NCC(c2cc3ccccc3[nH]c2=O)Nc2ccccc21 (configuration not stated) | 99.7 | 98.3 | 104 | 111 | 104 | 102 | 98.3 | 98.4 | 96.5 | 99.6 | 100 | 99.4 | 88.6 | 99.9 | 98.5 | 103 | 102 | 96.3 | 103 | 104 | growth at 10 µM (CCRF-CEM): 110%; growth at 10 µM (Malme-3M): 96.8%; growth at 10 µM (RXF 393): 90.7%; growth at 10 µM (UO-31): 76.8%; growth at 10 µM (A549): 92.4%; growth at 10 µM (MDA-MB-231): 97.9%; growth at 10 µM (TK-10): 87.8%; growth at 10 µM (HOP-62): 90.6%; growth at 10 µM (CAKI-1): 88.1%; growth at 10 µM (OVCAR-3): 111%; growth at 10 µM (COLO 205): 107%; growth at 10 µM (A498): 104%; growth at 10 µM (KM12): 103%

Source: ChEMBL document CHEMBL4138146, “A Schmidt rearrangement-mediated synthesis of novel tetrahydro-benzo[1,4]diazepin-5-ones as potential anticancer and antiprotozoal agents” (Eur J Med Chem, 2017)
